Measured values reported in ChEMBL document CHEMBL4020712, “Synthesis of new N3-substituted dihydropyrimidine derivatives as L-/T- type calcium channel blockers” (Eur J Med Chem, 2017).
Activity calls are given as the source filed them. The rule behind the calls is not given here.

Legend:
[1] = target: Cav1.2 (voltage-dependent L-type calcium channel subunit alpha-1C) (Rattus norvegicus, UniProt P22002); assay: Inhibition of rat Cav1.2 expressed in human tsA-201 cells co-expressing Cavbeta1b/Cavalpha2delta1 assessed as tonic block at 10 uM at holding potential of -90 mV by whole cell patch clamp method relative to control; type: cell-based
[2] = target: Voltage-dependent T-type calcium channel subunit alpha-1H (Homo sapiens) (UniProt O95180); assay: Inhibition of human Cav3.2 alpha1 expressed in human tsA-201 cells assessed as tonic block at 10 uM at holding potential of -110 mV by whole cell patch clamp method; type: cell-based
Sequence of Voltage-dependent T-type calcium channel subunit alpha-1H (Homo sapiens) (O95180 whole entry): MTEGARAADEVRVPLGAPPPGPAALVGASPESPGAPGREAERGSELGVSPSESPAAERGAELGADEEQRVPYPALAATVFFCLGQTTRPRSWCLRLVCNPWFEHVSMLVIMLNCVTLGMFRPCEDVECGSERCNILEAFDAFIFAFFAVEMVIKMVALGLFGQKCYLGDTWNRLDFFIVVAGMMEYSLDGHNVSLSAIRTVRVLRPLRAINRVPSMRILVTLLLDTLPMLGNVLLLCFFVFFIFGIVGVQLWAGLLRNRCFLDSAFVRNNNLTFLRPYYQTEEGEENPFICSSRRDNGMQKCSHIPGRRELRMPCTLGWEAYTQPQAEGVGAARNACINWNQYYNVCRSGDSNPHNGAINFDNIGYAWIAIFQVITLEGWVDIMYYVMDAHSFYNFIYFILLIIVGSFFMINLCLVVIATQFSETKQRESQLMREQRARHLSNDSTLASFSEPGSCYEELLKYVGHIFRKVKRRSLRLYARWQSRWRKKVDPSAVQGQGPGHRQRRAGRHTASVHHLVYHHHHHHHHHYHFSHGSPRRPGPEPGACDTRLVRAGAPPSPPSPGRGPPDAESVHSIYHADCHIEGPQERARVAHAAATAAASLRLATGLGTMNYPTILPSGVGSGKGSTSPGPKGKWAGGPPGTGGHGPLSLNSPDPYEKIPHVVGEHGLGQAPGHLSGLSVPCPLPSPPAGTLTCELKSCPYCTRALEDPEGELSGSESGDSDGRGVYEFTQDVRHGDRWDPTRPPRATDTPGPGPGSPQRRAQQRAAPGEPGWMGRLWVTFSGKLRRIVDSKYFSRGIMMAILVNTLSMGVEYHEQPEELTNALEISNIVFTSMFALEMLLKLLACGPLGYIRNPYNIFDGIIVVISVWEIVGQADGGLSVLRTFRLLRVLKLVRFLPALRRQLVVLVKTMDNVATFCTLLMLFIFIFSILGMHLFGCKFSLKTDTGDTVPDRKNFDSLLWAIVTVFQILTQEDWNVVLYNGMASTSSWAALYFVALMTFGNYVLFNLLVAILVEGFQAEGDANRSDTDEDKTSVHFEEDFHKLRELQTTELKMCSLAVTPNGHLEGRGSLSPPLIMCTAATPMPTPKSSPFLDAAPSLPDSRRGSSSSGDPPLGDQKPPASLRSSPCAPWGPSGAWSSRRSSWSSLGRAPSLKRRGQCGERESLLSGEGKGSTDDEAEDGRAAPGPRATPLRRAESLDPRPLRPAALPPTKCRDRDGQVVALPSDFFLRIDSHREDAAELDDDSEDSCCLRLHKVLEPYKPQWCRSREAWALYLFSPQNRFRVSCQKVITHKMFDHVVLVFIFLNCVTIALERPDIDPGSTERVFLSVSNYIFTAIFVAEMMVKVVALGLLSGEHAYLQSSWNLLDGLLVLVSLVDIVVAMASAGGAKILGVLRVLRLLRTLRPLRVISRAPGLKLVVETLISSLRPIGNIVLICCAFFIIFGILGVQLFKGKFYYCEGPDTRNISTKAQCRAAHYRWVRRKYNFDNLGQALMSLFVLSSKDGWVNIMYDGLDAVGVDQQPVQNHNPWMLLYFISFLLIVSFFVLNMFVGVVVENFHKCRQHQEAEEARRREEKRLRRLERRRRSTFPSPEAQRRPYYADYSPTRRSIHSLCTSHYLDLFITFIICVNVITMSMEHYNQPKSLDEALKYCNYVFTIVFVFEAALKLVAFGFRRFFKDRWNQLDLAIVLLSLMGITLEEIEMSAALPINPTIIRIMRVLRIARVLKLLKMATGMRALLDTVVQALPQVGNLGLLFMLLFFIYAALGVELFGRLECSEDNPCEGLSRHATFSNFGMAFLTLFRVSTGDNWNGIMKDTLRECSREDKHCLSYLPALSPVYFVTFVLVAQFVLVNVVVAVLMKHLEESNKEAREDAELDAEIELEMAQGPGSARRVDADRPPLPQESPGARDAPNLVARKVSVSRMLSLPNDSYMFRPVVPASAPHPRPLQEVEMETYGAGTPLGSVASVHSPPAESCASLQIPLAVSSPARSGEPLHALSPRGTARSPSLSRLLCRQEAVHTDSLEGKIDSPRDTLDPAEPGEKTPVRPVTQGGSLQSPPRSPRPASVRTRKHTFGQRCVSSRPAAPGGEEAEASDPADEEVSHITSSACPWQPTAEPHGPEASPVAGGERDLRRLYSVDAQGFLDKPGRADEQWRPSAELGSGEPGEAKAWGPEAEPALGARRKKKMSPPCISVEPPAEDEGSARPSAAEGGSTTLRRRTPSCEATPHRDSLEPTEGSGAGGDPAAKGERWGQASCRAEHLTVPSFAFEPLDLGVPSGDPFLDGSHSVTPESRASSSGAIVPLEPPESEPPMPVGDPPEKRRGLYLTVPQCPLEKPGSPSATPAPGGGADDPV

Sequence of Cav1.2 (voltage-dependent L-type calcium channel subunit alpha-1C) (P22002 whole entry): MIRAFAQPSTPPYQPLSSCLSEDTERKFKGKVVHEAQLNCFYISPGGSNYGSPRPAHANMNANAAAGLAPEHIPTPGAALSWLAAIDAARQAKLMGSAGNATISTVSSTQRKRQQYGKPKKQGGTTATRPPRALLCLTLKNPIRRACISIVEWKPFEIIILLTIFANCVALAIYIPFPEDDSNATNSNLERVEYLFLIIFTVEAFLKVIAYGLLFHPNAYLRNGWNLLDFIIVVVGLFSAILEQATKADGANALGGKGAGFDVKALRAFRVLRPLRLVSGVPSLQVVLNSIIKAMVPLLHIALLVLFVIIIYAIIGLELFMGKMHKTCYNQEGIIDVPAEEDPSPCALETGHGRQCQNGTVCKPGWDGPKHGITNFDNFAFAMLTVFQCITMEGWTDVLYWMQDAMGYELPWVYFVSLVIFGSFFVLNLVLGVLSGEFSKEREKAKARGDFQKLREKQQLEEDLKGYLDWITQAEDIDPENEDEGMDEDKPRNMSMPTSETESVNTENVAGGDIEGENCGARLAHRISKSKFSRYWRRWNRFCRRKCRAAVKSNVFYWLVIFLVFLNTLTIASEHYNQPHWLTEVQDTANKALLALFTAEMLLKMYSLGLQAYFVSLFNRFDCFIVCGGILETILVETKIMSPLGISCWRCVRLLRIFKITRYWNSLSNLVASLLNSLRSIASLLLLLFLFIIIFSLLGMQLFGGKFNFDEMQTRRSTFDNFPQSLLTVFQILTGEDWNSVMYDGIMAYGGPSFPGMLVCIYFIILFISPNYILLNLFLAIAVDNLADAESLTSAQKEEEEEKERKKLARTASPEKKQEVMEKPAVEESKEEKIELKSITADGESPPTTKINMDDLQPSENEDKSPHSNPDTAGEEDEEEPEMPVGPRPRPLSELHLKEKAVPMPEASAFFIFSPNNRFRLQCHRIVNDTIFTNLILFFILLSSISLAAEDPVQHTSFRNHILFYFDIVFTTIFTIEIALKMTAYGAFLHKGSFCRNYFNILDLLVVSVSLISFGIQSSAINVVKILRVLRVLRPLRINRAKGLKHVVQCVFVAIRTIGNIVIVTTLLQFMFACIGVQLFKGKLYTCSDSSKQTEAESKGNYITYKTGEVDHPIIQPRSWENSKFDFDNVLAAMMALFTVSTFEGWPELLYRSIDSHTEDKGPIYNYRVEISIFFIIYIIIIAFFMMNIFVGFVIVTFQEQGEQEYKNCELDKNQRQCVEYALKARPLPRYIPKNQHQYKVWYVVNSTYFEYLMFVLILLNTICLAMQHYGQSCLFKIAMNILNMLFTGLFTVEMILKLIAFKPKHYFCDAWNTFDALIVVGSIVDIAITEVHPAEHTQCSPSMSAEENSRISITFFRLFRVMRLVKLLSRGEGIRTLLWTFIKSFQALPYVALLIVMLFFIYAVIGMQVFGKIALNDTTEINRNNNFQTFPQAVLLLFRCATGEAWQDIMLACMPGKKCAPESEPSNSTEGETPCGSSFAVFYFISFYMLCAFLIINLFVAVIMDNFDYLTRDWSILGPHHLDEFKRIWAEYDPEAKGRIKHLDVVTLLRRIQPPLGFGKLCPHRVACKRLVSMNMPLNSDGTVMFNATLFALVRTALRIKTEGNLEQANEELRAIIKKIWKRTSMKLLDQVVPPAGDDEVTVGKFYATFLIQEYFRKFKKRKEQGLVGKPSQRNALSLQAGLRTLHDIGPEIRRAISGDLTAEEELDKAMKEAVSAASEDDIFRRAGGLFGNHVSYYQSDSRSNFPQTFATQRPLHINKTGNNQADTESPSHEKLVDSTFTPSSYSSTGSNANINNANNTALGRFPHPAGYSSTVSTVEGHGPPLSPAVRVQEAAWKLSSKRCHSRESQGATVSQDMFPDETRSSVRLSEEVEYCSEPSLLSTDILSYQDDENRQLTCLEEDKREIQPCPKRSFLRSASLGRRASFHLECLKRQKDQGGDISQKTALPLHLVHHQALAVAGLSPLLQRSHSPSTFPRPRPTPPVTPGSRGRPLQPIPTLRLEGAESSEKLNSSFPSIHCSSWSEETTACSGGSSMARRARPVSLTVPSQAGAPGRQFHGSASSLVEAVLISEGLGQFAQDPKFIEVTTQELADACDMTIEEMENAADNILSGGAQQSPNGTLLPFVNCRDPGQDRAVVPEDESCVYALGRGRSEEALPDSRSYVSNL

SMILES | inhibition at 10 µM [1] [%] | inhibition [2]
CCOC(=O)C1=C(C)NC(=O)N(CCC(=O)NCc2ccccc2)C1c1cccc([N+](=O)[O-])c1 (stereo not drawn) | < 50 | inactive
CCOC(=O)CCN1C(=O)NC(C)=C(C(=O)OCC)C1c1cccc([N+](=O)[O-])c1 (stereo not drawn) | > 75 | Active
CCOC(=O)C1=C(C)NC(=O)N(CCC(=O)OC)C1c1cccc([N+](=O)[O-])c1 (stereo not drawn) | < 50 | inactive
CCOC(=O)C1=C(C)NC(=O)N(CCC(=O)OC(C)C)C1c1cccc([N+](=O)[O-])c1 (stereo not drawn) | < 50 | inactive
CCOC(=O)C1=C(C)NC(=O)N(CCC(=O)O)C1c1cccc([N+](=O)[O-])c1 (stereo not drawn) | < 50 | inactive
CCOC(=O)C1=C(C)NC(=O)N(CCC(=O)OCCOC)C1c1cccc([N+](=O)[O-])c1 (stereo not drawn) | 50 | Active
CCOC(=O)C1=C(C)NC(=O)N(CCC(N)=O)C1c1cccc([N+](=O)[O-])c1 (stereo not drawn) | < 50 | inactive
CCOC(=O)C1=C(C)NC(=O)N(CCC(=O)OCc2cn(Cc3ccccc3)nn2)C1c1cccc([N+](=O)[O-])c1 (stereo not drawn) | < 50 | Active
CCOC(=O)C1=C(C)NC(=O)N(CCC#N)C1c1cccc([N+](=O)[O-])c1 (stereo not drawn) | < 50 | inactive
CCOC(=O)C1=C(C)NC(=O)N(CCC(=O)NCC(c2ccccc2)c2ccccc2)C1c1cccc([N+](=O)[O-])c1 (stereo not drawn) | < 50 | inactive
CCOC(=O)C1=C(C)NC(=O)N(CCC(=O)OCc2cn(CC(=O)c3ccccc3)nn2)C1c1cccc([N+](=O)[O-])c1 (stereo not drawn) | < 50 | Active
CCOC(=O)C1=C(C)NC(=O)N(CCC(=O)NN)C1c1cccc([N+](=O)[O-])c1 (stereo not drawn) | < 50 | inactive
C#CCOC(=O)CCN1C(=O)NC(C)=C(C(=O)OCC)C1c1cccc([N+](=O)[O-])c1 (stereo not drawn) | 50 | Active
CCOC(=O)C1=C(C)NC(=O)N(CCC(=O)N(C)Cc2ccccc2)C1c1cccc([N+](=O)[O-])c1 (stereo not drawn) | < 50 | inactive
